Patent publication US4234511A, “Dialkylamino-N,N-bis(phosphonoalkylene)alkylamines and use in aqueous systems as precipitation and corrosion inhibitors” (Buckman Laboratories, Inc., priority 1979, dated 1980)
Structures can show the parent of a compound that is named as a salt.

Assays:
[1] = Corrosion inhibition, circulating Memphis tap water with mild steel coupons; conditions: initial pH 7.5, 50° C., three days
Protocol: The test apparatus included a sump, a flow circuit, a circulating pump and a heater. […] The test fluid was Memphis tap water with the pH adjusted to 7.5 and the temperature was maintained at 50° C.±2° C.
The test fluid containing various concentrations of the compositions described herein was circulated continuously through the system containing the test coupons for a period of three days. At the end of this period, the coupons were removed, cleaned and weighed. The corrosion rates were calculated in milligrams per square decimeter per day (MDD).

[2] = Calcium Carbonate Antiprecipitation Tests; conditions: pH 9, 25° C., approx. 18 hours
Protocol: To evaluate the effect of the compounds of the present invention on the precipitation of calcium carbonate, measured volume of stock solution (prepared with demineralized water) of the phosphonic acids or their reaction product with epichlorohydrin were added to 100-ml portions of a calcium hydroxide solution (0.40 g Ca(OH)2 per liter). Then 100 ml of a sodium bicarbonate solution (0.50 g NaHCO3 per liter) was added to each portion of calcium hydroxide solution. The pH of each portion was adjusted to 9.00 (±0.05). The test solutions were then agitated on a rotary shaker for approximately 18 hours at a temperature of 25° C. At the end of this time insoluble material was removed by filtration with Whatman No. 4 filter paper and the calcium ion concentration in the filtrate was determined by titration with a standard ethylenediamine tetraacetic acid solution. The percent inhibition (Table 1) was calculated by comparing the test solution values with two controls included in every test series.

SMILES	Corrosion rate, Average ([1]; 50 parts per million)	Corrosion rate, Copper Couple ([1]; 50 parts per million)	Corrosion rate, Sump 1 ([1]; 50 parts per million)	Corrosion rate, Sump 2 ([1]; 50 parts per million)	Corrosion Inhibition, Percent ([1]; 100 parts per million) [%]	Corrosion rate, Average ([1]; 100 parts per million)	Corrosion rate, Copper Couple ([1]; 100 parts per million)	Corrosion rate, Sump 1 ([1]; 100 parts per million)	Corrosion rate, Sump 2 ([1]; 100 parts per million)	Inhibition of Calcium Carbonate Precipitation, percent inhibition ([2]; 1.0 parts per million) [%]	Inhibition of Calcium Carbonate Precipitation, percent inhibition ([2]; 2.0 parts per million) [%]	Inhibition of Calcium Carbonate Precipitation, percent inhibition ([2]; 3.0 parts per million) [%]	Inhibition of Calcium Carbonate Precipitation, percent inhibition ([2]; 4.0 parts per million) [%]	Inhibition of Calcium Carbonate Precipitation, percent inhibition ([2]; 5.0 parts per million) [%]	Inhibition of Calcium Carbonate Precipitation, percent inhibition ([2]; 6.0 parts per million) [%]	Inhibition of Calcium Carbonate Precipitation, percent inhibition ([2]; 7.0 parts per million) [%]	Inhibition of Calcium Carbonate Precipitation, percent inhibition ([2]; 8.0 parts per million) [%]	Inhibition of Calcium Carbonate Precipitation, percent inhibition ([2]; 9.0 parts per million) [%]	Inhibition of Calcium Carbonate Precipitation, percent inhibition ([2]; 10.0 parts per million) [%]	also measured
CN(C)CCN(CP(=O)(O)O)CP(=O)(O)O [F, 2-Dimethylamino-N',N'-bis(phosphonomethyl)ethylamine Hydrochloride]	35.46 Miligrams per decimeter per day	40.08 Miligrams per decimeter per day	12.94 Miligrams per decimeter per day	53.37 Miligrams per decimeter per day	99.4	1.57 Miligrams per decimeter per day	1.95 Miligrams per decimeter per day	1.24 Miligrams per decimeter per day	1.51 Miligrams per decimeter per day	6.2	17.8	32.3	35.3	49.5	55.6	65.2	69.6	77.7	78.6	Corrosion Inhibition, Percent ([1]; 150 parts per million): 99.6%; Corrosion rate, Average ([1]; 150 parts per million): 1.06 Miligrams per decimeter per day; Corrosion rate, Copper Couple ([1]; 150 parts per million): 0.98 Miligrams per decimeter per day; Corrosion rate, Sump 1 ([1]; 150 parts per million): 1.15 Miligrams per decimeter per day; Corrosion rate, Sump 2 ([1]; 150 parts per million): 1.06 Miligrams per decimeter per day
CN(C)CCCN(CP(=O)(O)O)CP(=O)(O)O [A, 3-(N,N-Dimethylamino)-N',N'-bis(phosphonomethyl)propylamine Hydrochloride]	1.51 Miligrams per decimeter per day	3.01 Miligrams per decimeter per day	1.33 Miligrams per decimeter per day	0.18 Miligrams per decimeter per day	99.5	1.24 Miligrams per decimeter per day	1.06 Miligrams per decimeter per day	0.89 Miligrams per decimeter per day	1.77 Miligrams per decimeter per day	0	0	4.2	41.6	50.9	54.5	64.1	60.6	69.4	67.5	Corrosion Inhibition, Percent ([1]; 50 parts per million): 99.4%; Corrosion Inhibition, Percent ([1]; 200 parts per million): 99.2%; Corrosion rate, Average ([1]; 200 parts per million): 2.13 Miligrams per decimeter per day; Corrosion rate, Copper Couple ([1]; 200 parts per million): 3.90 Miligrams per decimeter per day; Corrosion rate, Sump 1 ([1]; 200 parts per million): 1.15 Miligrams per decimeter per day; Corrosion rate, Sump 2 ([1]; 200 parts per million): 1.33 Miligrams per decimeter per day
